The record followed here is ChEMBL document CHEMBL5137093, “Improving Drug Delivery While Tailoring Prodrug Activation to Modulate Cmax and Cmin by Optimization of (Carbonyl)oxyalkyl Linker-Based Prodrugs of Atazanavir” (J Med Chem, 2022).

Where only a bound is given, the exact number is not on record here.

Series [1] deals with Voltage-gated inwardly rectifying potassium channel KCNH2 (Homo sapiens, UniProt Q12809). In words: Inhibition of human ERG by patch-clamp assay. Format: toxicity. (In patch-clamp work, channel activity is measured electrically.)
Sequence of Voltage-gated inwardly rectifying potassium channel KCNH2 (Q12809 whole entry): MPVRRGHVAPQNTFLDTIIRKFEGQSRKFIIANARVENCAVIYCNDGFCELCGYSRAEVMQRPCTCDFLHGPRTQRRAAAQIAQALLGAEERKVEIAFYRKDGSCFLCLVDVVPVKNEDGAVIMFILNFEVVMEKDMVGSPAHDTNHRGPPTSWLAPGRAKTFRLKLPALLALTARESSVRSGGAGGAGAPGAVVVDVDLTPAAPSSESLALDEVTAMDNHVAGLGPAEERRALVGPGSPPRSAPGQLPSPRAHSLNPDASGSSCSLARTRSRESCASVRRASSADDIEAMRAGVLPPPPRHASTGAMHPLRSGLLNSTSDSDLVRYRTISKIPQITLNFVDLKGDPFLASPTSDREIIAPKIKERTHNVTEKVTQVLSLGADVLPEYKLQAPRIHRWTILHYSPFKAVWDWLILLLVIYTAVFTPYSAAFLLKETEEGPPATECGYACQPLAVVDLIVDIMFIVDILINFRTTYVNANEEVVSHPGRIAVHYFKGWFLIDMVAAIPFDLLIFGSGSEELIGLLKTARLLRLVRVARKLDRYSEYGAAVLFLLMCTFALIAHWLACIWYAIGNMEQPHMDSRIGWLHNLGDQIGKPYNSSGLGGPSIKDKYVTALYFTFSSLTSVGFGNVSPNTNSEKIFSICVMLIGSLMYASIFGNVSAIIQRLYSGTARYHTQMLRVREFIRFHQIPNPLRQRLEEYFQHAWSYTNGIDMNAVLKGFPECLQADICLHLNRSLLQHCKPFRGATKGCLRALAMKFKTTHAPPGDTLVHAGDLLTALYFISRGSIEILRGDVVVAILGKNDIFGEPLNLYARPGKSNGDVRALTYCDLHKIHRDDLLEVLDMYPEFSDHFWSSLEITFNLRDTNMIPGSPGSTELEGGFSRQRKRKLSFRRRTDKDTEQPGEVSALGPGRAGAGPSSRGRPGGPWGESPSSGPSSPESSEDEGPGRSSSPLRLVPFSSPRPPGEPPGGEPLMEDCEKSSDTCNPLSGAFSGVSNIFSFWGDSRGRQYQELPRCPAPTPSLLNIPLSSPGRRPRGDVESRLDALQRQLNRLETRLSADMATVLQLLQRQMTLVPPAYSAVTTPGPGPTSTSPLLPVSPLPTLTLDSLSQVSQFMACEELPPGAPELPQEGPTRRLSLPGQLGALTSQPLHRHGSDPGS
Series [2] in a line: Cmax in Sprague-Dawley rat at 3 mg/kg,po measured upto 24 hrs by UPLC-MS/MS analysis. Format: ADME, organism-based. On the set-up: dose 3 mg/kg, time < 24 hrs, route po. The settings on record: in vivo.
The nature of series [3]: Cmax in Sprague-Dawley rat at 30 mg/kg,po measured upto 24 hrs by UPLC-MS/MS analysis. Format: ADME, organism-based. On the set-up: time < 24 hrs, dose 30 mg/kg, route po. The settings on record: in vivo.
The nature of series [4]: Ratio of Cmax/Cmin in Sprague-Dawley rat at 1 mg/kg,iv measured after 24 hrs by UPLC-MS/MS analysis. The class given is ADME, organism-based. The settings on record: in vivo.
Series [5] can be described thus: Volume of distribution at steady state in Sprague-Dawley rat at 1 mg/kg,iv measured upto 24 hrs by UPLC-MS/MS analysis. To be noted: in vivo, read-out: Vdss. Format: ADME, organism-based.
Series [6] in a line: Clearance in Sprague-Dawley rat at 1 mg/kg,iv measured upto 24 hrs by UPLC-MS/MS analysis. Format: ADME, organism-based. To be noted: in vivo.
A short description of series [7]: AUClast in Sprague-Dawley rat at 3 mg/kg,po measured upto 24 hrs by UPLC-MS/MS analysis. Format: ADME, organism-based. More on the design: time < 24 hrs, dose 3 mg/kg, route po. The settings on record: in vivo.
Series [8] is described as follows: Half life in Sprague-Dawley rat at 1 mg/kg,iv measured upto 24 hrs by UPLC-MS/MS analysis. The class given is ADME, organism-based. To be noted: in vivo.
Series [9] can be described thus: Aqueous solubility of compound at pH 4 by UPLC analysis. To be noted: aqueous medium, read-out: solubility. Format: physicochemical.
Series [10] is described as follows: Tmax in Sprague-Dawley rat at 30 mg/kg,po measured upto 24 hrs by UPLC-MS/MS analysis. The class given is ADME, organism-based. To be noted: in vivo.
The nature of series [11]: Cmax in Sprague-Dawley rat at 1 mg/kg,iv measured upto 24 hrs by UPLC-MS/MS analysis. Format: ADME, organism-based. On the set-up: dose 1 mg/kg, time < 24 hrs, route iv. To be noted: in vivo.
A short description of series [12]: Ratio of Cmax/Cmin in Sprague-Dawley rat at 3 mg/kg,po measured after 24 hrs by UPLC-MS/MS analysis. The class given is ADME, organism-based. To be noted: in vivo.
Series [13] is described as follows: Tmax in Sprague-Dawley rat at 3 mg/kg,po measured upto 24 hrs by UPLC-MS/MS analysis. The class given is ADME, organism-based. To be noted: in vivo.
A short description of series [14]: AUClast in Sprague-Dawley rat at 1 mg/kg,iv measured upto 24 hrs by UPLC-MS/MS analysis. Format: ADME, organism-based. More on the design: time < 24 hrs, dose 1 mg/kg, route iv. The settings on record: in vivo.
Series [15] can be described thus: Cmin in Sprague-Dawley rat at 1 mg/kg,iv measured after 24 hrs by UPLC-MS/MS analysis. Format: ADME, organism-based. The settings on record: in vivo, read-out: Cmin.
A short description of series [16]: AUClast in Sprague-Dawley rat at 30 mg/kg,po measured upto 24 hrs by UPLC-MS/MS analysis. The class given is ADME, organism-based. More on the design: time < 24 hrs, dose 30 mg/kg, route po. The settings on record: in vivo.
Series [17] is described as follows: Aqueous solubility of compound at pH 6.5 by UPLC analysis. To be noted: aqueous medium, read-out: solubility. Format: physicochemical.

A word on the IC50: it is the concentration that inhibits the measured activity by half. A word on the Cmax: it is the maximum level reached in the sampled fluid or tissue. One may read the clearance as a measure of how efficiently the substance is removed, as volume per time. Low values mean a low capacity for elimination, high ones a high capacity for elimination. A word on the AUC(0-t): it is the area under the concentration-time curve up to a stated or last time point. In general, half-life refers to the time needed for the level to fall by half in the phase considered. Read a low half-life as rapid decline. A word on the solubility: it is the dissolved amount per volume that the medium holds. The term Tmax denotes the time at which the peak concentration occurs. In the case of `COC(=O)N[C@H](C(=O)N[C@@H](Cc1ccccc1)[C@@H](O)CN(Cc1ccc(-c2ccccn2)cc1)NC(=O)[C@@H](NC(=O)OC)C(C)(C)C)C(C)(C)C` [ATAZANAVIR], the half-maximal inhibitory concentration (IC50) in [1] was ≥ 30 µM. Moreover, the Cmax in [2] was 266 nM; in series [3] it was 5110 nM; in [11], 2510 nM. The Ratio in series [4] was 8978.6; in series [12], 1064. The Vd in [5] was 1.5 L/kg. The clearance in series [6] is 38.7 mL/min/kg. The AUC(0-t) at 24 h was 0.384 µM·h in series [7], 0.636 µM·h in series [14] and 20.9 µM·h in [16]. Moreover, the half-life in series [8] was 7 h. Further, the solubility in series [9] and in [17] was < 1 µg/mL each time. Moreover, the Tmax in series [10] is 3 h; in series [13], 0.5 h. In addition, in series [15], the concentration at 24 h came to 0.28 nM.
